Measured values from patent US10945992B1, “Dosage forms of rofecoxib and related methods” (Tremeau Pharmaceuticals, Inc., priority 2019, dated 2021).
Where two headings read alike, the source gives them in different places.

Assay: TRM-201-PK-102 single-dose four-period crossover pharmacokinetic study, fasted healthy subjects
Format: in vivo, human
Conditions: human, plasma, oral
Experimental: A Single-Dose, Open-Label, Phase 1, Four-Period Crossover Pharmacokinetic Study of TRM-201 (Rofecoxib) 12.5 mg, 17.5 mg, 20 mg and 25 mg Administered to Healthy Subjects in a Fasting State, with Comparison to Historical Pharmacokinetic Parameters of Previously Marketed Rofecoxib (“TRM-201-PK-102” or “102 PK Study”)
This was a single-center, open-label four-period crossover PK study of TRM-201. The study included 24 subjects who received TRM-201 as a single dose of 12.5 mg, 17.5 mg, 20 mg and 25 mg to assess the PK of TRM-201 in healthy volunteers under fasted conditions. Subjects were randomized to one of four treatment sequences. The PK data from the current study along with the data from the TRM-201-PK-101 study (Example 4) was used to compare to historical pharmacokinetic parameters of previously marketed rofecoxib, all in a fasted state.
In each of the four dosing periods, subjects fasted overnight for at least 10 hours before study drug dosing. While fasting, subjects had nothing to eat and only water to drink. Water was permitted as desired, except for the period between 1 hour before and 1 hour after study drug dosing (excepting as permitted for dosing). After the 2-hour PK blood sample, subjects were allowed one 250-mL cup of clear apple juice. After the 4-hour PK blood sample, subjects were served a light lunch. Following the light lunch, subjects received standardized meals according to the clinic's standard procedures that were scheduled at consistent times and at least 15 minutes before or 15 minutes after PK sampling time points. Blood was withdrawn for PK analysis at predefined time points. For each dosing period the last time point was 120 hours after dosing with study drug (Day 6). After the 120 hour PK sample, the EOP procedures was completed, subjects remained in-clinic for the in-between dose period day (Days 7, 14, and 21) and began the next dosing period starting with an overnight fast for at least 10 hours on Day −1 of the subsequent dosing period. Pharmacokinetic and safety endpoints were evaluated.
The study drug, TRM-201, was an immediate-release tablet that contained 12.5 mg rofecoxib, 17.5 mg rofecoxib, 20 mg rofecoxib or 25 mg rofecoxib. The 7.25-mm diameter tablets were off-white, round, and uncoated with no markings. TRM-201 tablets were for oral administration.
For each sample, approximately 3 mL of blood were drawn. The samples were obtained by a straight stick or via an in-dwelling intravenous (IV) catheter in a forearm vein. Additional details for the collection, processing, storage, and shipping of PK samples were provided in the study manual.
Pharmacokinetic samples will be analyzed using a validated assay for rofecoxib in human plasma. Assay results and validation details will be provided in a separate bioanalytical report. The following PK parameters for rofecoxib will be calculated as primary endpoints using standard noncompartmental methods: AUC0-∞ and Cmax. Secondary endpoints include Tmax, and t1/2. Additional PK parameters (e.g., CL/F, and Vd/F) will also be calculated using standard noncompartmental methods.
Individual plasma concentrations for rofecoxib and PK sampling time deviation data will be presented in a data listing. Plasma concentration data will be summarized by time point using the following descriptive statistics: number of subjects, arithmetic mean, SD, coefficient of variation (CV), geometric mean, natural-log-scale SD, geometric CV, median, minimum, and maximum. Individual plasma concentration versus actual time profiles were presented on both linear and semilogarithmic scales. Additionally, arithmetic mean concentration versus scheduled time profiles were presented on linear scales and geometric means on semilogarithmic scales.
The PK parameters of rofecoxib were analyzed based on the actual sampling times. […]

[1] = 20 mg, read-out: arithmetic mean plasma concentration
[2] = 20 mg, read-out: geometric mean plasma concentration

Question: Which AUC(0-inf) (20 mg, 102 study only, read-out: arithmetic mean AUC0-∞) does the source give for CS(=O)(=O)c1ccc(C2=C(c3ccccc3)C(=O)OC2)cc1 [TRM-201, 4-[4-(methylsulfonyl)phenyl]-3-phenyl-2(5H)-furanone] here?
Answer: 3750 ng·h/mL

Question: And the Cmax (20 mg, 102 study only, read-out: arithmetic mean Cmax)?
Answer: 277 ng/mL

Question: What about the AUC(0-inf) (20 mg, 102 study only, read-out: geometric mean AUC0-∞) of the same molecule?
Answer: 3550 ng·h/mL

Question: And the Cmax (20 mg, 102 study only, read-out: geometric mean Cmax)?
Answer: 259 ng/mL

Question: What about the AUC(0-inf) (20 mg, 102 study, 18-40 years, read-out: arithmetic mean AUC0-∞) of the same molecule?
Answer: 3580 ng·h/mL

Question: What about the Cmax (20 mg, 102 study, 18-40 years, read-out: arithmetic mean Cmax) of the same molecule?
Answer: 308 ng/mL

Question: And the AUC(0-inf) (20 mg, 102 study, 18-40 years, read-out: geometric mean AUC0-∞)?
Answer: 3420 ng·h/mL

Question: And the Cmax (20 mg, 102 study, 18-40 years, read-out: geometric mean Cmax)?
Answer: 289 ng/mL

Question: What about the AUC(0-inf) (20 mg, 102 study, 41-52 years, read-out: arithmetic mean AUC0-∞) of the same molecule?
Answer: 3730 ng·h/mL

Question: And the Cmax (20 mg, 102 study, 41-52 years, read-out: arithmetic mean Cmax)?
Answer: 262 ng/mL

Question: And the AUC(0-inf) (20 mg, 102 study, 41-52 years, read-out: geometric mean AUC0-∞)?
Answer: 3360 ng·h/mL

Question: What about the Cmax (20 mg, 102 study, 41-52 years, read-out: geometric mean Cmax) of the same molecule?
Answer: 242 ng/mL

Question: What about the AUC(0-inf) (20 mg, 102 study, 53-60 years, read-out: arithmetic mean AUC0-∞) of the same molecule?
Answer: 3940 ng·h/mL

Question: And the Cmax (20 mg, 102 study, 53-60 years, read-out: arithmetic mean Cmax)?
Answer: 260 ng/mL

Question: And the AUC(0-inf) (20 mg, 102 study, 53-60 years, read-out: geometric mean AUC0-∞)?
Answer: 3880 ng·h/mL

Question: What about the Cmax (20 mg, 102 study, 53-60 years, read-out: geometric mean Cmax) of the same molecule?
Answer: 249 ng/mL

Question: What about the AUC(0-inf) (20 mg, 102 study, Black or African-American subjects, read-out: arithmetic mean AUC0-∞) of the same molecule?
Answer: 3380 ng·h/mL

Question: And the Cmax (20 mg, 102 study, Black or African-American subjects, read-out: arithmetic mean Cmax)?
Answer: 298 ng/mL

Question: And the AUC(0-inf) (20 mg, 102 study, Black or African-American subjects, read-out: geometric mean AUC0-∞)?
Answer: 3300 ng·h/mL

Question: What about the Cmax (20 mg, 102 study, Black or African-American subjects, read-out: geometric mean Cmax) of the same molecule?
Answer: 295 ng/mL

Question: What about the AUC(0-inf) (20 mg, 102 study, Hispanic or Latino subjects, read-out: arithmetic mean AUC0-∞) of the same molecule?
Answer: 3840 ng·h/mL

Question: What about the Cmax (20 mg, 102 study, Hispanic or Latino subjects, read-out: arithmetic mean Cmax) of the same molecule?
Answer: 281 ng/mL

Question: What about the AUC(0-inf) (20 mg, 102 study, Hispanic or Latino subjects, read-out: geometric mean AUC0-∞) of the same molecule?
Answer: 3630 ng·h/mL

Question: What about the Cmax (20 mg, 102 study, Hispanic or Latino subjects, read-out: geometric mean Cmax) of the same molecule?
Answer: 258 ng/mL

Question: What about the AUC(0-inf) (20 mg, 102 study, White subjects, read-out: arithmetic mean AUC0-∞) of the same molecule?
Answer: 3850 ng·h/mL

Question: What about the Cmax (20 mg, 102 study, White subjects, read-out: arithmetic mean Cmax) of the same molecule?
Answer: 271 ng/mL

Question: And the AUC(0-inf) (20 mg, 102 study, White subjects, read-out: geometric mean AUC0-∞)?
Answer: 3610 ng·h/mL

Question: And the Cmax (20 mg, 102 study, White subjects, read-out: geometric mean Cmax)?
Answer: 250 ng/mL

Question: What about the AUC(0-inf) (20 mg, 102 study, body weight 47-70 kg, read-out: arithmetic mean AUC0-∞) of the same molecule?
Answer: 3650 ng·h/mL

Question: What about the Cmax (20 mg, 102 study, body weight 47-70 kg, read-out: arithmetic mean Cmax) of the same molecule?
Answer: 336 ng/mL

Question: What about the AUC(0-inf) (20 mg, 102 study, body weight 47-70 kg, read-out: geometric mean AUC0-∞) of the same molecule?
Answer: 3340 ng·h/mL

Question: And the Cmax (20 mg, 102 study, body weight 47-70 kg, read-out: geometric mean Cmax)?
Answer: 307 ng/mL

Question: What about the AUC(0-inf) (20 mg, 102 study, body weight 70.1-77 kg, read-out: arithmetic mean AUC0-∞) of the same molecule?
Answer: 4500 ng·h/mL

Question: What about the Cmax (20 mg, 102 study, body weight 70.1-77 kg, read-out: arithmetic mean Cmax) of the same molecule?
Answer: 259 ng/mL

Question: What about the AUC(0-inf) (20 mg, 102 study, body weight 70.1-77 kg, read-out: geometric mean AUC0-∞) of the same molecule?
Answer: 4400 ng·h/mL

Question: What about the Cmax (20 mg, 102 study, body weight 70.1-77 kg, read-out: geometric mean Cmax) of the same molecule?
Answer: 248 ng/mL

Question: And the AUC(0-inf) (20 mg, 102 study, body weight 77.1-90 kg, read-out: arithmetic mean AUC0-∞)?
Answer: 3250 ng·h/mL

Question: What about the Cmax (20 mg, 102 study, body weight 77.1-90 kg, read-out: arithmetic mean Cmax) of the same molecule?
Answer: 238 ng/mL

Question: What about the AUC(0-inf) (20 mg, 102 study, body weight 77.1-90 kg, read-out: geometric mean AUC0-∞) of the same molecule?
Answer: 3170 ng·h/mL

Question: And the Cmax (20 mg, 102 study, body weight 77.1-90 kg, read-out: geometric mean Cmax)?
Answer: 231 ng/mL

Question: And the AUC(0-inf) (20 mg, 102 study, non-Hispanic or non-Latino subjects, read-out: arithmetic mean AUC0-∞)?
Answer: 3660 ng·h/mL

Question: What about the Cmax (20 mg, 102 study, non-Hispanic or non-Latino subjects, read-out: arithmetic mean Cmax) of the same molecule?
Answer: 272 ng/mL

Question: And the AUC(0-inf) (20 mg, 102 study, non-Hispanic or non-Latino subjects, read-out: geometric mean AUC0-∞)?
Answer: 3470 ng·h/mL

Question: And the Cmax (20 mg, 102 study, non-Hispanic or non-Latino subjects, read-out: geometric mean Cmax)?
Answer: 260 ng/mL

Question: What about the concentration at 15 minutes [1] of the same molecule?
Answer: 5.75 ng/mL

Question: And the concentration at 15 minutes [2]?
Answer: 1.16 ng/mL

Question: And the concentration at 45 minutes [1]?
Answer: 121 ng/mL

Question: What about the concentration at 45 minutes [2] of the same molecule?
Answer: 72.6 ng/mL

Question: What about the AUC(0-inf) (25 mg, 102 study only, read-out: arithmetic mean AUC0-∞) of the same molecule?
Answer: 4630 ng·h/mL

Question: And the Cmax (25 mg, 102 study only, read-out: arithmetic mean Cmax)?
Answer: 349 ng/mL

Question: And the AUC(0-inf) (25 mg, 102 study only, read-out: geometric mean AUC0-∞)?
Answer: 4490 ng·h/mL

Question: What about the Cmax (25 mg, 102 study only, read-out: geometric mean Cmax) of the same molecule?
Answer: 341 ng/mL

Question: What about the AUC(0-inf) (25 mg, 102 study, 18-40 years, read-out: arithmetic mean AUC0-∞) of the same molecule?
Answer: 4140 ng·h/mL

Question: What about the Cmax (25 mg, 102 study, 18-40 years, read-out: arithmetic mean Cmax) of the same molecule?
Answer: 366 ng/mL

Question: And the AUC(0-inf) (25 mg, 102 study, 18-40 years, read-out: geometric mean AUC0-∞)?
Answer: 4050 ng·h/mL

Question: What about the Cmax (25 mg, 102 study, 18-40 years, read-out: geometric mean Cmax) of the same molecule?
Answer: 356 ng/mL

Question: And the AUC(0-inf) (25 mg, 102 study, 41-52 years, read-out: arithmetic mean AUC0-∞)?
Answer: 4810 ng·h/mL
